Laboratory results: patent publication US12459985B2, “G-protein-coupled receptor internal sensors” (THE REGENTS OF THE UNIVERSITY OF CALIFORNIA, priority 2016, dated 2025)
Values belong to the molecule of their own block, whether it stands above or below them.

Tests used:
5HT2A receptor = 5HT2A receptor (Homo sapiens, UniProt P28223, DEL264-288/DEL297-315/INS291[…]/INS295[…]/K293E/S316L); assay: 5HT2A receptor sensor with universal module 2, fluorescence response; format: cell-based; settings: universal module 2 in 5HT2A receptor
Mu-opioid receptor = assay: Opioid sensor (cpGFP in Loop3 of the Mu-opioid receptor) response in HEK293T cells; format: cell-based, human
[1] = biological target: Beta2AR with a cpGFP integrated into the third intracellular loop (Homo sapiens, UniProt P07550)
B2AR [2] = biological target: T1, B2AR (Homo sapiens, UniProt P07550, C265Q/D251A/E249T/E27Q/F240D/F264D/G16R/G238K/G257K/INS236[…]/INS254[…]/K235L/K263H/N244L/Q243V/Q247F/Q250A/R253I/R259E/R260Y/S246E/S261N/S262N/V242M); format: cell-based; settings: universal module 1 in B2AR; 10 μM
T1 construct: expressed in transfected cells

B2AR [3] = biological target: B2AR (Homo sapiens, UniProt P07550, C265Q/D251A/E249T/E27Q/F240D/F264D/G16R/G238K/G257K/INS233[…]/INS254[…]/K232L/K235P/K263H/L230S/N244L/Q229L/Q231S/Q243V/Q247F/Q250A/R253I/R259E/R260Y/S236N/S246E/S261N/S262N/V242M); assay: B2AR sensor with universal module 2, fluorescence response; format: cell-based; settings: inserted into EAKR-deleted third intracellular loop residues-KEHK of B2AR

Chain of 5HT2A receptor (P28223 with tags, fused parts or gaps with the stated changes): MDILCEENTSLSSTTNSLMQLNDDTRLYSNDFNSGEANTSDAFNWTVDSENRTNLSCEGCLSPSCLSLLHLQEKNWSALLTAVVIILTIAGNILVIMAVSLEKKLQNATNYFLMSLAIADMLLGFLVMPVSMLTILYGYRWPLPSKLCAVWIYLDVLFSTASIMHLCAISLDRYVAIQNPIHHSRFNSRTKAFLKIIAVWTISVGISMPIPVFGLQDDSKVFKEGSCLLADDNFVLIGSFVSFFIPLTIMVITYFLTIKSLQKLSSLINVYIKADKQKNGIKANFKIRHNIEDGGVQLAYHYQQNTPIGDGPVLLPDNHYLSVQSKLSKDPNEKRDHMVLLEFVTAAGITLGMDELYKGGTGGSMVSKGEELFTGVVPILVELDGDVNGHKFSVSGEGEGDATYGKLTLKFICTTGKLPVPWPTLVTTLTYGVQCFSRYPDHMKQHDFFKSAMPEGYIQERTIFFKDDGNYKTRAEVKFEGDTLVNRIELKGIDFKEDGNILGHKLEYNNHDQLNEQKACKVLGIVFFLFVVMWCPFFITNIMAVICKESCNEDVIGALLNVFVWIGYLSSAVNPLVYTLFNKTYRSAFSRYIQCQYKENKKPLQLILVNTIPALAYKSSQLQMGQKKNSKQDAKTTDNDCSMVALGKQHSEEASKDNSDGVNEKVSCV

Molecule: NCCc1c[nH]c2ccc(O)cc12 [Serotonin]
ΔF/F response (5HT2A receptor): ~30%

specific response of the sensor ([1]; 50 μM, non-Beta2AR ligands): did not detect any specific response
Molecule: NCCc1ccc(O)c(O)c1 [Dopamine]

Molecule: NC[C@H](O)c1ccc(O)c(O)c1 [norepinephrine]
τ½ON ([1]; time constant of association, saturating conditions (1 μM drug)): 29.62 s
τ½OFF ([1]; time constant of dissociation, saturating conditions (1 μM drug)): 106.91 s
ΔF/F (B2AR [2]): 150%

Molecule: LSSLI-cpGFP-NHDQL [Universal module 2]
ΔF/F (B2AR [3]): 100%
